Experimental findings from publication PMC12282092, “Discovery of a non-nucleoside inhibitor that binds to a novel site in the palm domain of the respiratory syncytial virus RNA-dependent RNA polymerase” (Journal of Virology, 2025) are described below.

Data set [1] has as its system rgRSV224 virus (RSV A2) in HeLa cells. The data set is described as follows: HeLa cell rgRSV224 eGFP reporter viral proliferation assay. It counts as cell-based. Conditions: human respiratory syncytial virus, RSV eGFP phenotypic assay in HeLa cells; for EC50: HeLa, 72 h, MOI 1, 72 h, n ≥ 2, read-out: Cellular EC50; for Emax: read-out: Cellular Emax. The method, then: (§1) Compound serial dilutions (9 point, fourfold) were prepared in DMSO, and 200 nL was transferred to black, 384-well, clear-bottom microtiter plates (Corning, Amsterdam, The Netherlands) via acoustic drop ejection ([36], [50]). […] Then, 20 µL of a HeLa cell suspension (3,000 cells/well) was added with a Multidrop Combi, and cells were incubated at 37°C in a 5% CO2 atmosphere. After 72 h, GFP expression was quantified using an EnVision Multimode Plate Reader (Perkin Elmer, Zaventem, Belgium), and data were normalized to untreated and media-only (no virus) controls. Cytotoxicity was determined in parallel using the ATPlite kit (Perkin Elmer, Zaventem, Belgium). Luminescence was measured in white, 384-well microtiter plates (Corning) on a ViewLux uHTS Microplate Imager apparatus (PerkinElmer, Zaventem, Belgium), and cellular ATP content was quantified by normalizing to untreated and media-only (no cell) controls. […] Figures were prepared with GraphPad Prism.

The target in another data set is T1, RSV L+P (Human respiratory syncytial virus A, UniProt P28887).
T1 construct: Biochemical activity of 1 and 22 against full-length RSV L+P; Twin-Strep-tag (N); made in house; host or cells: Sf9 insect cells (baculovirus, pFastBac Dual)
T1 sequence (P03421 whole entry): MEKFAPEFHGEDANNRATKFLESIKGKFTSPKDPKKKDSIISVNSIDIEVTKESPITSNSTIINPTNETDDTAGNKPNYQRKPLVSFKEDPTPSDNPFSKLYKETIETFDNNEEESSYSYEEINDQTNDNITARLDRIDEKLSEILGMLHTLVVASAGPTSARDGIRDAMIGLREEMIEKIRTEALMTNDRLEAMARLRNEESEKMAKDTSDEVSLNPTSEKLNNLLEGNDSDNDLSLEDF
T1 sequence (P28887 whole entry): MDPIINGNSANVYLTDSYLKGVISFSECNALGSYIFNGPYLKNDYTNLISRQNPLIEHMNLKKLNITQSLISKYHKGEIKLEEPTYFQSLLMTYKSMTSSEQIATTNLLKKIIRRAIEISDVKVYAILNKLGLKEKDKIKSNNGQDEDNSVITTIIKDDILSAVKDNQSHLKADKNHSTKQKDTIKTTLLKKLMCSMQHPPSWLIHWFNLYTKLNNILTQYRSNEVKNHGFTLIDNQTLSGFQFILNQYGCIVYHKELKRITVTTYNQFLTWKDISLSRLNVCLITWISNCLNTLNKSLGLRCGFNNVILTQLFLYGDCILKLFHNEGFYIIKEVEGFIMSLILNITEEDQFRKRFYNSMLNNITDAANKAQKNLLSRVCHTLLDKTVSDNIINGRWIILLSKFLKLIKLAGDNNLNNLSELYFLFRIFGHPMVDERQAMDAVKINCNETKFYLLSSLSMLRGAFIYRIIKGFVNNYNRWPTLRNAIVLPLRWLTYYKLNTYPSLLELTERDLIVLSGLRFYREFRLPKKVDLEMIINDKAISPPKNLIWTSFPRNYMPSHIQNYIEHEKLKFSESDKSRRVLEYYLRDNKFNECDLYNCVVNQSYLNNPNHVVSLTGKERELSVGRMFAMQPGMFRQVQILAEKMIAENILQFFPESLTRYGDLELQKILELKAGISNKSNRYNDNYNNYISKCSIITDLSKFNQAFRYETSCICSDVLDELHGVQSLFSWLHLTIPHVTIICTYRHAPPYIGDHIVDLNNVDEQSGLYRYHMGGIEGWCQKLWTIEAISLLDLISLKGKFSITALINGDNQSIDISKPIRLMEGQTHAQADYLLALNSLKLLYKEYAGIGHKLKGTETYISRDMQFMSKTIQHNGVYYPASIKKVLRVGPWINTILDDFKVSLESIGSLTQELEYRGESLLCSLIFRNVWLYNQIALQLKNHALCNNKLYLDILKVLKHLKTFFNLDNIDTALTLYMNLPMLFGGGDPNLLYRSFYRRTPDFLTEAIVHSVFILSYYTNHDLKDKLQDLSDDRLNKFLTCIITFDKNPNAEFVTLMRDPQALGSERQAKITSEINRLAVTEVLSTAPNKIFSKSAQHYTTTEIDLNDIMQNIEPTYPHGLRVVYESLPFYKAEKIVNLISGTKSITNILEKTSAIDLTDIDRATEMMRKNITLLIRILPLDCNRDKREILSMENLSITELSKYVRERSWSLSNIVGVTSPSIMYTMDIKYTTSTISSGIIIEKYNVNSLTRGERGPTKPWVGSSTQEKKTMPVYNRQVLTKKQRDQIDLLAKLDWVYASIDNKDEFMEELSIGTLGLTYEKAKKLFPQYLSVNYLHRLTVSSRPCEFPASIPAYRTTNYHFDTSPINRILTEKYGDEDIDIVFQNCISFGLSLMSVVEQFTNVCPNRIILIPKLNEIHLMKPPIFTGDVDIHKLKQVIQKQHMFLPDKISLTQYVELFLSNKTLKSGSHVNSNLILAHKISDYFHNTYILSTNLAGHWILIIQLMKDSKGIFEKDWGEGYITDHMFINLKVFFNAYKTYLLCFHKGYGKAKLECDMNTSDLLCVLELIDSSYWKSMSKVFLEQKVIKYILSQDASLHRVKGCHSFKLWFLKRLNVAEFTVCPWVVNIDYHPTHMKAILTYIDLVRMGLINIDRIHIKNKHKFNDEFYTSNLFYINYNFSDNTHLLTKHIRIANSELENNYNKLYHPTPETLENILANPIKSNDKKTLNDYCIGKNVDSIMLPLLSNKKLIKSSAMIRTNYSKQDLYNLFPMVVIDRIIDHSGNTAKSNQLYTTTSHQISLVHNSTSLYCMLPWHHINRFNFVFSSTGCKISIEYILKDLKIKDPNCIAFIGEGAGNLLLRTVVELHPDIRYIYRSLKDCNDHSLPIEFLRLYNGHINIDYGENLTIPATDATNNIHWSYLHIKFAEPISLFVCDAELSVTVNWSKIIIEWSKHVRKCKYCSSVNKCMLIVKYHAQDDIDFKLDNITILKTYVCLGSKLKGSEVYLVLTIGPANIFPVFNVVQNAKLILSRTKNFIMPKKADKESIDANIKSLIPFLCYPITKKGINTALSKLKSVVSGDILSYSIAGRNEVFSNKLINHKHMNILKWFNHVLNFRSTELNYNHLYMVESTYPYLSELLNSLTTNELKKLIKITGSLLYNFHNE
The data set is described as follows: Pyrophosphate luminescence detection assay, full-length RSV L+P. Format: biochemical. To be noted: pyrophosphate luminescence detection assay; for Emax: read-out: Biochemical Emax; for IC50: read-out: Biochemical IC50.

The target of data set [2] is coupled enzyme system (ATP sulfurylase, luciferase). The data set is described as follows: Pyrophosphate detection counterscreen. Conditions: read-out: PPi counterscreen IC50. Format: biochemical. The method, then: To determine if compounds were interfering with the sulfurylase or luciferase in the pyrophosphate luminescence detection assay, a counterscreen was developed to monitor activity of the coupling system. Working solutions (3×) of substrate and detection reagents were prepared as before and added to 1536-well white, COC plates containing compound titrations. Then, 1 µL of a 3× solution of 4.5 µM sodium pyrophosphate (Sigma, P8010) was dispensed with the Multidrop Combi to initiate the reaction. […] Luminescence was detected using the PHERAStar FSX. […] Figures were prepared with GraphPad Prism.
For orientation: Counterscreens check selectivity or assay interference.

Data set [3] in a line: Metabolic stability in liver microsomes. Conditions: in vitro intrinsic clearance in human liver microsomes, n = 1.
The target in data set [4] is human mitochondrial RNA polymerase (POLRMT) (Homo sapiens, UniProt O00411). The data set is described as follows: POLRMT assay.
human mitochondrial RNA polymerase (POLRMT), sequence (O00411 103-1230): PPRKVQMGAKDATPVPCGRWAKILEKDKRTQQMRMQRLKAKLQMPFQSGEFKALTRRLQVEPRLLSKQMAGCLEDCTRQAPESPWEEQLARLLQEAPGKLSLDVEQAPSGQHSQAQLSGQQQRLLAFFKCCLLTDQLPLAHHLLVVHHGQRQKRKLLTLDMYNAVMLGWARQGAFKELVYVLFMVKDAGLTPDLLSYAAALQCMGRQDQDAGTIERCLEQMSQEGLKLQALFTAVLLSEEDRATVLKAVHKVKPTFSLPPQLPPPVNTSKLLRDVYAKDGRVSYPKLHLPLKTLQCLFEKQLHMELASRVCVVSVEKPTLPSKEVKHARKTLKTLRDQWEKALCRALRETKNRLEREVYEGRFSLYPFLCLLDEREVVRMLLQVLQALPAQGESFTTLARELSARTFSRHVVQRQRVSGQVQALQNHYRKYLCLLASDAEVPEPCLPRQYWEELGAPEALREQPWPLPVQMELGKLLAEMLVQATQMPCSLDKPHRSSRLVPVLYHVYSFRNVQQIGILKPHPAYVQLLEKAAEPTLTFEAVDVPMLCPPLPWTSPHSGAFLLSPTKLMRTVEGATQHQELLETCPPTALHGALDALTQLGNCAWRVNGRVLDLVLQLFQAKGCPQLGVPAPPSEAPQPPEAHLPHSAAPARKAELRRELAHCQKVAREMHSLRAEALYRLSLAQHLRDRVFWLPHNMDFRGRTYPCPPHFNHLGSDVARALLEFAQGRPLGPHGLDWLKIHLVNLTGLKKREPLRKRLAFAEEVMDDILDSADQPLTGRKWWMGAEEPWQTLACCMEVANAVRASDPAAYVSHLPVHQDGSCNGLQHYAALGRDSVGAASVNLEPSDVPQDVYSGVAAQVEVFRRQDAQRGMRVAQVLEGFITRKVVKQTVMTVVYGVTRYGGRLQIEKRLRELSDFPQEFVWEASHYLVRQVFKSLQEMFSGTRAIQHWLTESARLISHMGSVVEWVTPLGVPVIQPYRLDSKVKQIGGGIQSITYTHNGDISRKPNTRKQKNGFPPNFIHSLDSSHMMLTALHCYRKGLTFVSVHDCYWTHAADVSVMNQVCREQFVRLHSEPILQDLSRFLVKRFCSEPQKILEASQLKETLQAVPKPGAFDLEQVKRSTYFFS
A further data set deals with HeLa cells. The data set is described as follows: HeLa cytotoxicity assay (ATPlite). Conditions: HeLa cells. The method, then: as §1
For orientation: In ATP-based viability assays light output follows the ATP content of the culture.

Data set [5] is described as follows: HeLa cytotoxicity assay (ATPlite). Conditions: human; for CC50 at 72 h: HeLa cells. The method, then:
as §1

The target in data set [6] is Full-length RSV P (1-241) protein (human RSV). The data set is described as follows: cryo-EM structure; full-length RSV L+P complex with compound 22; 0.8 mg/mL on grids; global resolution 2.72 Å.

Turning to `N#Cc1ncc(N2CCC3(CC2)C(=O)Nc2ccc(Br)cc23)cc1Cl` [Compound 1, 5-(5-bromo-2-oxospiro[indoline-3,4'-piperidin]-1'-yl)-3-chloropicolinonitrile], the EC50 in data set [1] was 6.68 µM. In addition, the results for the Emax (in data set [1]; at RSV L+P) were 94.6% and 110%, respectively. Besides, the IC50 in data set [2] and in data set [4] was more than 100 µM throughout. The “HLM CLint” value in data set [3] is listed as <7.7 µL/min/mg microsomal protein. Besides, the “POLRMT IC50” value in data set [4] (8 nM POLRMT) is recorded as “no activity”. Besides, the “Cytotoxicity Emax” value with HeLa cells was found to be 63.1%. Further, in data set [5], the CC50 at 72 h was more than 3.8 µM.
On to `N#Cc1ncc(N2CCC3(CC2)C(=O)N(CCF)c2ccc(F)cc23)cc1Cl` [Compound 25, 3-chloro-5-(5-fluoro-1-(2-fluoroethyl)-2-oxospiro[indoline-3,4'-piperidin]-1'-yl)picolinonitrile], for which, in data set [1], the half-maximal effective concentration (EC50) stood at 8.86 µM. Further, the Emax was 80.3% in data set [1] and 90.7% at RSV L+P. Further, on RSV L+P (full-length RSV L+P, n ≥ 2), the IC50 stood at 2.86 µM. Further, the “HLM CLint” value in data set [3] is recorded as 14.1 µL/min/mg microsomal protein. Besides, the “Cytotoxicity Emax” value with HeLa cells came out at 66.5%. Besides, in data set [5], the CC50 at 72 h is more than 23.4 µM.
In the case of `CN1C(=O)C2(CCN(c3ccc(C#N)c(Cl)n3)CC2)c2cc(F)ccc21` [Compound 29, 2-chloro-6-(5-fluoro-1-methyl-2-oxospiro[indoline-3,4'-piperidin]-1'-yl)nicotinonitrile], in data set [1], the EC50 was 7.89 µM and the Emax is 94.3%. Further, the IC50 at RSV L+P (full-length RSV L+P, n ≥ 2) came to 1.56 µM. In addition, the Emax on RSV L+P was 95.5%. For the same compound, the “HLM CLint” value in data set [3] is 31.9 µL/min/mg microsomal protein. Further, the “Cytotoxicity Emax” value in the data set with HeLa cells was 66.9%. The compound also displayed a CC50 at 72 h in data set [5] of more than 8.43 µM.
As for `CN1C(=O)C2(CCN(c3ccc(C#N)c(Cl)c3)CC2)c2cc(F)ccc21` [Compound 30], in data set [1], the EC50 was found to be 4.35 µM. Moreover, the Emax in data set [1] was found to be 95.8%; on RSV L+P, 100%. For the same compound, the IC50 on RSV L+P (full-length RSV L+P, n ≥ 2) was 1.25 µM. Moreover, the “HLM CLint” value in data set [3] is reported as 39.1 µL/min/mg microsomal protein. Also, the “Cytotoxicity Emax” value with HeLa cells turned out to be 58.0%. In data set [5], the CC50 was more than 6.65 µM.
Turning to `COc1cc(N2CCC3(CC2)C(=O)N(C)c2ccc(F)cc23)cnc1C#N` [Compound 31, 5-(5-fluoro-1-methyl-2-oxospiro[indoline-3,4'-piperidin]-1'-yl)-3-methoxypicolinonitrile], in data set [1], the EC50 was 8.78 µM and the Emax was found to be 98.6%. At RSV L+P (full-length RSV L+P, n ≥ 2), the half-maximal inhibitory concentration (IC50) came to 2.98 µM. For the same compound, the Emax at RSV L+P was 115%. Besides, the “HLM CLint” value in data set [3] was 20.5 µL/min/mg microsomal protein. Also, in the data set on HeLa cells, the “Cytotoxicity Emax” value came to 37.6%. The compound also came in with a CC50 at 72 h in data set [5] of more than 22.7 µM.
With `Cc1cc(N2CCC3(CC2)C(=O)N(C)c2ccc(F)cc23)cc(F)c1C#N` [Compound 32, 2-fluoro-4-(5-fluoro-1-methyl-2-oxospiro[indoline-3,4'-piperidin]-1'-yl)-6-methylbenzonitrile], in data set [1], the EC50 is 13.8 µM and the Emax amounted to 92.6%. The IC50 at RSV L+P (full-length RSV L+P, n ≥ 2) was 1.9 µM. Also, the Emax on RSV L+P worked out at 91.2%. For the same compound, the “HLM CLint” value in data set [3] is reported as 64.8 µL/min/mg microsomal protein. Further, in the data set with HeLa cells, the “Cytotoxicity Emax” value is given as 50.9%. The CC50 at 72 h in data set [5] was more than 5.78 µM.
For the compound `CN1C(=O)C2(CCN(c3cnc(N4CCOCC4)c(Cl)c3)CC2)c2cc(F)ccc21` [Compound 34, 1'-(5-chloro-6-morpholinopyridin-3-yl)-5-fluoro-1-methylspiro[indoline-3,4'-piperidin]-2-one], in data set [1], the 50% effective concentration (EC50) worked out at 30.3 µM and the Emax came out at 49.6%. Moreover, at RSV L+P (full-length RSV L+P, n ≥ 2), the “Biochemical IC50” value is “inactive” and the IC50 is more than 30.2 µM. Further, the Emax on RSV L+P was determined as 69.5%. Also, the “HLM CLint” value in data set [3] is listed as 126 µL/min/mg microsomal protein. Also, the “Cytotoxicity Emax” value in the data set with HeLa cells is reported as 41.6%. Besides, in data set [5], the CC50 at 72 h was more than 50 µM.
For the compound “Full-length RSV P (1-241) protein (natural protein)”, the stoichiometry N in data set [6] was 4.

What is called EC50 is the concentration that produces a half-maximal response. In general, IC50 refers to the concentration that gives 50% inhibition. As a reminder, the stoichiometry N is a count of units in the complex or per binding partner.
